{
  "source": "ChEMBL document CHEMBL1201862",
  "about": "“PubChem BioAssay data set” (2004)",
  "key": {"[1]": {"test_system": "H9c2", "assay": "cells", "format": "functional, cell-based", "conditions": "Rattus norvegicus, H9c2, Myocardium"}, "[2]": {"biological_target": "Large T antigen (Simian virus 40, UniProt P03070)", "sequence (P03070 whole entry)": "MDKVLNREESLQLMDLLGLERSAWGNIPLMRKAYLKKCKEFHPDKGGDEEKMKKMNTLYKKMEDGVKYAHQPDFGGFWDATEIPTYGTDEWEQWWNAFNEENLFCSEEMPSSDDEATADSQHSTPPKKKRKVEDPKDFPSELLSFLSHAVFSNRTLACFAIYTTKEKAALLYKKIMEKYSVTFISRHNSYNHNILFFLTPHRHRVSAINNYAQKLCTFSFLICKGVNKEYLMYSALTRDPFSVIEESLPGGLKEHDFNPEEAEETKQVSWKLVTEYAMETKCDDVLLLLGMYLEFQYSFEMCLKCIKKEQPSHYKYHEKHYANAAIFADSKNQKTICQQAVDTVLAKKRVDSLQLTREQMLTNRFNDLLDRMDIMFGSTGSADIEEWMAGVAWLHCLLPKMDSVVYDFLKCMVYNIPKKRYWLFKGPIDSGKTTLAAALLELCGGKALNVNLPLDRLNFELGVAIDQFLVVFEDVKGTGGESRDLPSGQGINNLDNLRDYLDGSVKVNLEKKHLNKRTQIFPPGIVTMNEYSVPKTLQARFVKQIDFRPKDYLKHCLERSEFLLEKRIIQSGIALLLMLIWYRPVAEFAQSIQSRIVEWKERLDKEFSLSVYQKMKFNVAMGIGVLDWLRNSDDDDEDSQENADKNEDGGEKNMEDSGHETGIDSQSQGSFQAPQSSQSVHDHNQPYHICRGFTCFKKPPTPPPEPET", "format": "functional, Betapolyomavirus macacae"}, "[3]": {"biological_target": "T1, Polyadenylate-binding protein 1 (Homo sapiens, UniProt P11940)", "T1 sequence (P11940 whole entry)": "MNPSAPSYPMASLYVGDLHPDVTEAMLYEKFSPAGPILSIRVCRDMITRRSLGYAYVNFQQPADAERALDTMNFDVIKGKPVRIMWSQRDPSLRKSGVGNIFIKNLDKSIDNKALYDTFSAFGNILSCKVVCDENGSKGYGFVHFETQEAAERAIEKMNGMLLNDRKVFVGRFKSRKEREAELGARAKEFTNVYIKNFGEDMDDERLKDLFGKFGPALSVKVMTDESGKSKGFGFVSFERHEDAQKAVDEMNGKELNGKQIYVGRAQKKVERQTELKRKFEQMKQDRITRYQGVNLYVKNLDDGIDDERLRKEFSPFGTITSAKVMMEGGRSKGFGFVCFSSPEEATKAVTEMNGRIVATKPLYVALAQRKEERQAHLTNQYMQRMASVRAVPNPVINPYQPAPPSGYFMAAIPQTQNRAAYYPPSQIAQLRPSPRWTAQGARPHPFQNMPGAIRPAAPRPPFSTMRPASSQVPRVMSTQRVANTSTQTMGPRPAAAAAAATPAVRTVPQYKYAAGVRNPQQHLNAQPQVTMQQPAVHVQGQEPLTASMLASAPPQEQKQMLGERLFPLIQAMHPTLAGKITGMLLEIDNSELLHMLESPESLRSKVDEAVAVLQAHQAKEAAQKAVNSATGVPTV", "assay": "PABP1 MLLE–PAM2 binding inhibitor potency, dose response, biochemical, fluorescence polarization, FITC-PAM2 peptide (AID 602259)", "format": "functional", "conditions": "read-out: IC50_Mean"}, "[4]": {"biological_target": "T1, Polyadenylate-binding protein 1", "assay": "PABP1 MLLE–PAM2 interaction inhibitors, dose response, miRNA deadenylation inhibitor project, biochemical, fluorescence polarization, Cy5-PAM2 peptide, secondary (AID 602260)", "format": "functional", "conditions": "read-out: IC50_Mean"}, "[5]": {"biological_target": "Glyceraldehyde-3-phosphate dehydrogenase (Homo sapiens, UniProt P04406)", "sequence (P04406 whole entry)": "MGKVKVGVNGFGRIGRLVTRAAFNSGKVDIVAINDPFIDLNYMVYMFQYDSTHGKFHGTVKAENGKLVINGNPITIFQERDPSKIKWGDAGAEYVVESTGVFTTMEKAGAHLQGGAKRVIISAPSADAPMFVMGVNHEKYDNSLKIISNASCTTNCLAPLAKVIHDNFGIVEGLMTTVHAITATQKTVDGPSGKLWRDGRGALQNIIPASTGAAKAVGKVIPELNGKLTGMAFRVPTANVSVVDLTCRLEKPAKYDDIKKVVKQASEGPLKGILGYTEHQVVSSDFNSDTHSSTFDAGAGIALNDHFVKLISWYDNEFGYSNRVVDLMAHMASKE"}, "[6]": {"biological_target": "T2, Zinc finger protein mex-5 (Caenorhabditis elegans, UniProt Q9XUB2)", "T2 sequence (Q9XUB2 whole entry)": "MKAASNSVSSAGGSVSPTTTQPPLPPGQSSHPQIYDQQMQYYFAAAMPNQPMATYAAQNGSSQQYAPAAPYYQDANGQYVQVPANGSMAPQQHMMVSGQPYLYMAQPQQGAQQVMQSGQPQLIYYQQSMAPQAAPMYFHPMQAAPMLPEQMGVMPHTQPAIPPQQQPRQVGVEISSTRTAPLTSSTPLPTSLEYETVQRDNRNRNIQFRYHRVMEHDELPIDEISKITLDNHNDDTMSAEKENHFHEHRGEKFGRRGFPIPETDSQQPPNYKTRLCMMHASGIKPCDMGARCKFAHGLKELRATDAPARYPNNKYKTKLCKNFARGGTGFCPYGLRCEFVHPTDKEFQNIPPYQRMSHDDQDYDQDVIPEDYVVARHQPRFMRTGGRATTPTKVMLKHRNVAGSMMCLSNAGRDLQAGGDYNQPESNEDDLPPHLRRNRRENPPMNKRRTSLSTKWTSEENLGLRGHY", "assay": "MEX-5/TCR-2 RNA interaction inhibitors, dose response, biochemical, C. elegans, fluorescence polarization (AID 1960)"}, "[7]": {"biological_target": "T3, RNA-binding protein pos-1 (Caenorhabditis elegans, UniProt G5EF15)", "T3 sequence (G5EF15 whole entry)": "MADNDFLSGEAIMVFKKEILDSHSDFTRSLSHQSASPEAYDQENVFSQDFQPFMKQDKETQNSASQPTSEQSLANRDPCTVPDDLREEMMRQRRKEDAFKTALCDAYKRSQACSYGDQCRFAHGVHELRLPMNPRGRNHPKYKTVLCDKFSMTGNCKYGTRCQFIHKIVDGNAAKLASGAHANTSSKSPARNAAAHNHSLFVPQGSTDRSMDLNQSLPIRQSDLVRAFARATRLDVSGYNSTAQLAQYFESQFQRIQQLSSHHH", "assay": "inhibitors of POS-1/mex-3 RNA binding, dose response, biochemical, fluorescence polarization (AID 1964);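 also: purified POS-1 fused to maltose binding protein made in E. coli; potency of compounds blocking POS-1 binding to fluorescent RNA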"}, "[8]": {"biological_target": "T4, Corticotropin-releasing factor receptor 2/Corticotropin-releasing factor-binding protein (Homo sapiens, UniProt P24387+Q13324)", "T4 sequence (Q13324 whole entry)": "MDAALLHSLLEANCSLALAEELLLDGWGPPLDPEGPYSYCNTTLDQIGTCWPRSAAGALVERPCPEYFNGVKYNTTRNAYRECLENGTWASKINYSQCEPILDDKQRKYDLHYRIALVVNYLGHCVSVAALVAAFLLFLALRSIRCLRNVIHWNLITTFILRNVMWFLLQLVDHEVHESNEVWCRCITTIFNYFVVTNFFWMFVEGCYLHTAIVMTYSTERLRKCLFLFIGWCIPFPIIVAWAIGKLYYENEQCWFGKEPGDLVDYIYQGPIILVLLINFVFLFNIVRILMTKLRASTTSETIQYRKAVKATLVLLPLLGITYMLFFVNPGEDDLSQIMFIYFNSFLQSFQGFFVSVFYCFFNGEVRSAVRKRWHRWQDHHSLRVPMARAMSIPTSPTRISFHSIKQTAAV", "T4 sequence (P24387 whole entry)": "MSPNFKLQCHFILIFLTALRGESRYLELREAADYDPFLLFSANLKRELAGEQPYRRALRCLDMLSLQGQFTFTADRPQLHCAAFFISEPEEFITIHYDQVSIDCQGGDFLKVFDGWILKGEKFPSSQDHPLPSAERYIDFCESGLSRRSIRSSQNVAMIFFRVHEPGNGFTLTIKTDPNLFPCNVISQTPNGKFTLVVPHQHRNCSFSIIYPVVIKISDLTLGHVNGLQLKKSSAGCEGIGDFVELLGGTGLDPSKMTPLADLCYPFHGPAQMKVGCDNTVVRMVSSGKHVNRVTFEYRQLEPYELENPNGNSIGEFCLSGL", "assay": "Dose Response confirmation of uHTS hits for small molecule antagonists of the CRF-binding protein and CRF-R2 receptor complex.", "format": "functional", "conditions": "read-out: IC50_Mean"}, "[9]": {"biological_target": "T4, Corticotropin-releasing factor receptor 2/Corticotropin-releasing factor-binding protein", "assay": "activators of CRF receptor 2 with binding protein – uHTS hits, confirmation (AID 602473)", "format": "functional", "conditions": "read-out: EC50_Mean"}},
  "note": "Activity calls are given as the source filed them.",
  "data": [
    {"smiles": "CCC(CC)C(=O)Nc1cc(C)c2c(=O)oc3ccccc3c2n1", "values": [
      {"measurement": "IC50", "setting": "[1]", "value": "> 79 µM (inactive)"}
    ]},
    {"smiles": "CCOC(=O)C1=C(O)/C(=C/c2cccc(OC)c2O)N=C1C", "values": [
      {"measurement": "IC50", "setting": "[2]", "value": "16.4 µM (active)"}
    ]},
    {"smiles": "NS(=O)(=O)c1ccc(-c2ccc(C=C3C(=O)NC(=S)NC3=O)o2)cc1", "values": [
      {"measurement": "IC50", "setting": "[2]", "value": "10.5 µM (active)"}
    ]},
    {"smiles": "CCOC(=O)C1CCN(c2cc3c(cc2NC(=O)c2ccccc2Cl)n(C)c(=O)n3C)CC1", "values": [
      {"measurement": "IC50", "setting": "[1]", "value": "> 79 µM (inactive)"}
    ]},
    {"smiles": "O=C(NC(=S)N1CCCCCC1)c1ccccc1Cl", "values": [
      {"measurement": "IC50", "setting": "[3]", "value": "> 66 µM (inactive)"},
      {"measurement": "IC50", "setting": "[4]", "value": "> 66 µM (inactive)"}
    ]},
    {"smiles": "COC(=O)c1ccc(C(C(=O)NCc2ccccc2)N(Cc2cccs2)C(=O)c2cnccn2)cc1", "note": "(stereo not drawn)", "values": [
      {"measurement": "IC50", "setting": "[1]", "value": "8.82 µM (active)"}
    ]},
    {"smiles": "Cc1ccc(S(=O)(=O)Nc2ccc(O)c(C(=O)O)c2)c(C)c1", "values": [
      {"measurement": "IC50", "setting": "[5]", "value": "> 100 µM (not active)"}
    ]},
    {"smiles": "NC(=S)c1cnn2c(-c3cccc(C(F)(F)F)c3)ccnc12", "values": [
      {"measurement": "IC50", "setting": "[3]", "value": "> 66 µM (inactive)"},
      {"measurement": "IC50", "setting": "[4]", "value": "> 66 µM (inactive)"}
    ]},
    {"smiles": "CC(C)C1Nc2ccc(S(N)(=O)=O)cc2C2C=CCC21", "note": "(stereo not drawn)", "values": [
      {"measurement": "EC50", "setting": "[6]", "value": "30.4 µM (active)"},
      {"measurement": "EC50", "setting": "[7]", "value": "52.4 µM (active)"}
    ]},
    {"smiles": "N#CC1=C(N)OC2=C(C(=O)CC(c3ccccc3)C2)C1c1ccc2c(c1)OCO2", "note": "(stereo not drawn)", "values": [
      {"measurement": "IC50", "setting": "[8]", "value": "> 47.1 µM (inactive)"},
      {"measurement": "EC50", "setting": "[6]", "value": "> 300 µM (not active)"},
      {"measurement": "EC50", "setting": "[9]", "value": "> 53 µM (inactive)"},
      {"measurement": "EC50", "setting": "[7]", "value": "> 300 µM (not active)"}
    ]},
    {"smiles": "O=C(COc1ccc(Cl)cc1)NCc1nnc(O)c2ccccc12", "values": [
      {"measurement": "IC50", "setting": "[1]", "value": "> 79 µM (inactive)"}
    ]},
    {"smiles": "CCC(ONc1ccccc1C(F)(F)F)(C(=O)NN(C)C)c1ccccc1", "note": "(stereo not drawn)", "values": [
      {"measurement": "IC50", "setting": "[1]", "value": "33.3 µM (inactive)"}
    ]}
  ]
}
